Experimental data taken from patent publication US9409905B2, “Antibacterial compounds and methods for use” (PTC THERAPEUTICS, INC., priority 2011, dated 2016).
In brackets after ≈: the same amount, converted by molar mass.

What was measured:
[1] = system: Pseudomonas aeruginosa (P. aeruginosa) 27853; assay: Antibacterial activity, MIC (Table 5); assay type: cell-based; details: P. aeruginosa 27853, read-out: MIC, 27853
Outline: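 Compounds are serially diluted in broth and inoculated with the organism. Growth is then inspected macroscopically, and the lowest concentration showing none is taken as the MIC (μg/mL).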

K. pneumoniae MXX1232 = assay: Antibacterial activity, MIC, resistant strain (Table 4); assay type: cell-based; details: Klebsiella pneumoniae, MXX1232; resistant K. pneumoniae MMX1232, multi-drug resistant clinical isolate; read-out: MIC, MMX1232
Description: (§1) The antibacterial activity from a microbroth dilution method may be presented as the minimum inhibitory concentration (MIC in μg/mL). The MIC value is the lowest concentration of drug which prevents macroscopically visible growth under test conditions.
(§2) Antibacterial activity of test compounds against the Gram-negative Acinetobacter baumannii (A. baumannii) BAA747 and Klebsiella pneumoniae (K. pneumoniae) 35657 bacterium and the resistant A. baumannii MXX2240 and K. pneumoniae MXX1232 strains are shown in Table 4. The MMX strains are multi-drug resistant clinical isolates.

A. baumannii MXX2240 = assay: as above; assay type: cell-based; details: Acinetobacter baumannii, MXX2240; resistant A. baumannii MMX2240, multi-drug resistant clinical isolate; read-out: MIC, MMX2240
Description: as §1, §2

E. coli LZ3111 = assay: Antibacterial activity, MIC, quinolone resistant strain (Table 2); assay type: cell-based; details: Escherichia coli, LZ3111, read-out: MIC LZ3111
Outline: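 Strain carries mutations conferring high-level quinolone resistance; tested by microbroth dilution, MIC recorded in μg/mL as lowest concentration preventing visible growth.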

[2] = system: Staphylococcus aureus (S. aureus) 29213; assay: Antibacterial activity, microbroth dilution MIC (Table 1); assay type: cell-based; details: microbroth dilution, Gram-positive S. aureus 29213, read-out: MIC, 29213
Outline: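 Broth microdilution against S. aureus 29213, E. coli 25922 and hypersensitive E. coli BAS849. MIC in μg/mL is the lowest drug concentration preventing macroscopically visible growth under test conditions.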

[3] = system: Escherichia coli (E. coli) BAS849; assay: as above; assay type: cell-based; details: microbroth dilution, super sensitive Gram-negative E. coli BAS849, read-out: MIC, BAS849
Outline: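 Potency is reported as minimum inhibitory concentration in μg/mL, determined by broth microdilution as the lowest level of compound that stops growth visible to the eye.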

[4] = system: Klebsiella pneumoniae (K. pneumoniae) 35657; assay: Antibacterial activity, MIC (Table 4); assay type: cell-based; details: K. pneumoniae 35657, read-out: MIC, 35657
Outline: (§3)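 MIC in μg/mL by microbroth dilution, scored as the lowest level that suppresses visible growth.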

[5] = system: Acinetobacter baumannii (A. baumannii) BAA747; assay: Antibacterial activity, MIC (Table 4); assay type: cell-based; details: A. baumannii BAA747, read-out: MIC, BAA747
Outline: as §3

E. coli 25922 = assay: Antibacterial activity, microbroth dilution MIC (Table 1); assay type: cell-based, Escherichia coli; details: Escherichia coli; microbroth dilution; control Gram-negative E. coli 25922 strain; read-out: MIC, 25922
Outline: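 In a microbroth dilution test, the minimum inhibitory concentration was defined as the lowest compound level preventing growth seen by eye, and was given in μg/mL.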

SMILES	MIC [1]	MIC (K. pneumoniae MXX1232)	MIC (A. baumannii MXX2240)	MIC (E. coli LZ3111)	MIC [2]	MIC [3]	MIC [4]	MIC [5]	MIC (E. coli 25922)
CCc1c(-c2ccc3c(c2)c(F)c(CNC)n3C)[nH]c(=O)c(C(=O)O)c1O [Cpd 368, 5-ethyl-6-(3-fluoro-1-methyl-2-((methylamino)methyl)-1H-indol-5-yl)-4-hydroxy-2-oxo-1,2-dihydropyridine-3-carboxylic acid]	12.5 to 150 µg/mL (≈ 33.5 to 402 µM)	12.5 to 150 µg/mL (≈ 33.5 to 402 µM)	3.5 to 12.5 µg/mL (≈ 9.37 to 33.5 µM)	3.5 to 12.5 µg/mL (≈ 9.37 to 33.5 µM)	12.5 to 150 µg/mL (≈ 33.5 to 402 µM)	< 1 µg/mL	1 to 3.5 µg/mL (≈ 2.68 to 9.37 µM)	1 to 3.5 µg/mL (≈ 2.68 to 9.37 µM)	1 to 3.5 µg/mL (≈ 2.68 to 9.37 µM)
CCNCc1c(F)c2cc(-c3[nH]c(=O)c(C(=O)O)c(O)c3CC)ccc2n1C [Cpd 369, 5-ethyl-6-(2-((ethylamino)methyl)-3-fluoro-1-methyl-1H-indol-5-yl)-4-hydroxy-2-oxo-1,2-dihydropyridine-3-carboxylic acid]	12.5 to 150 µg/mL (≈ 32.3 to 387 µM)	12.5 to 150 µg/mL (≈ 32.3 to 387 µM)	3.5 to 12.5 µg/mL (≈ 9.03 to 32.3 µM)	3.5 to 12.5 µg/mL (≈ 9.03 to 32.3 µM)	12.5 to 150 µg/mL (≈ 32.3 to 387 µM)	< 1 µg/mL	< 1 µg/mL	1 to 3.5 µg/mL (≈ 2.58 to 9.03 µM)	1 to 3.5 µg/mL (≈ 2.58 to 9.03 µM)
CCc1c(-c2ccc3c(c2)c(F)c(CNC(C)C)n3C)[nH]c(=O)c(C(=O)O)c1O [Cpd 370, 5-ethyl-6-(3-fluoro-2-((isopropylamino)methyl)-1-methyl-1H-indol-5-yl)-4-hydroxy-2-oxo-1,2-dihydropyridine-3-carboxylic acid]	12.5 to 150 µg/mL (≈ 31.1 to 374 µM)	12.5 to 150 µg/mL (≈ 31.1 to 374 µM)	3.5 to 12.5 µg/mL (≈ 8.72 to 31.1 µM)	3.5 to 12.5 µg/mL (≈ 8.72 to 31.1 µM)	3.5 to 12.5 µg/mL (≈ 8.72 to 31.1 µM)	< 1 µg/mL	3.5 to 12.5 µg/mL (≈ 8.72 to 31.1 µM)	1 to 3.5 µg/mL (≈ 2.49 to 8.72 µM)	< 1 µg/mL
CCc1c(-c2ccc3c(c2)c(F)c(CNC(C)(C)C)n3C)[nH]c(=O)c(C(=O)O)c1O [Cpd 371, 6-(2-((tert-butylamino)methyl)-3-fluoro-1-methyl-1H-indol-5-yl)-5-ethyl-4-hydroxy-2-oxo-1,2-dihydropyridine-3-carboxylic acid]	12.5 to 150 µg/mL (≈ 30.1 to 361 µM)	12.5 to 150 µg/mL (≈ 30.1 to 361 µM)	3.5 to 12.5 µg/mL (≈ 8.42 to 30.1 µM)	12.5 to 150 µg/mL (≈ 30.1 to 361 µM)	12.5 to 150 µg/mL (≈ 30.1 to 361 µM)	< 1 µg/mL	1 to 3.5 µg/mL (≈ 2.41 to 8.42 µM)	3.5 to 12.5 µg/mL (≈ 8.42 to 30.1 µM)	1 to 3.5 µg/mL (≈ 2.41 to 8.42 µM)
CCc1cc(C(=O)O)c(=O)[nH]c1-c1ccc2c(ccn2C)c1OCc1ccccc1 [Cpd 372, 6-(4-(benzyloxy)-1-methyl-1H-indol-5-yl)-5-ethyl-2-oxo-1,2-dihydropyridine-3-carboxylic acid]	12.5 to 150 µg/mL (≈ 31.1 to 373 µM)	12.5 to 150 µg/mL (≈ 31.1 to 373 µM)	12.5 to 150 µg/mL (≈ 31.1 to 373 µM)	12.5 to 150 µg/mL (≈ 31.1 to 373 µM)	12.5 to 150 µg/mL (≈ 31.1 to 373 µM)	12.5 to 150 µg/mL (≈ 31.1 to 373 µM)	12.5 to 150 µg/mL (≈ 31.1 to 373 µM)	12.5 to 150 µg/mL (≈ 31.1 to 373 µM)	12.5 to 150 µg/mL (≈ 31.1 to 373 µM)
CCc1c(-c2ccc3c(ccn3C)c2OCc2ccccc2)[nH]c(=O)c(C(=O)O)c1O [Cpd 373, 6-(4-(benzyloxy)-1-methyl-1H-indol-5-yl)-5-ethyl-4-hydroxy-2-oxo-1,2-dihydropyridine-3-carboxylic acid]	12.5 to 150 µg/mL (≈ 29.9 to 358 µM)	12.5 to 150 µg/mL (≈ 29.9 to 358 µM)	12.5 to 150 µg/mL (≈ 29.9 to 358 µM)	12.5 to 150 µg/mL (≈ 29.9 to 358 µM)	1 to 3.5 µg/mL (≈ 2.39 to 8.36 µM)	3.5 to 12.5 µg/mL (≈ 8.36 to 29.9 µM)	12.5 to 150 µg/mL (≈ 29.9 to 358 µM)	12.5 to 150 µg/mL (≈ 29.9 to 358 µM)	12.5 to 150 µg/mL (≈ 29.9 to 358 µM)
CCc1c(-c2ccc3c(ccn3C)c2O)[nH]c(=O)c(C(=O)O)c1O [Cpd 374, 5-ethyl-4-hydroxy-6-(4-hydroxy-1-methyl-1H-indol-5-yl)-2-oxo-1,2-dihydropyridine-3-carboxylic acid]	12.5 to 150 µg/mL (≈ 38.1 to 457 µM)	12.5 to 150 µg/mL (≈ 38.1 to 457 µM)	12.5 to 150 µg/mL (≈ 38.1 to 457 µM)	12.5 to 150 µg/mL (≈ 38.1 to 457 µM)	12.5 to 150 µg/mL (≈ 38.1 to 457 µM)	12.5 to 150 µg/mL (≈ 38.1 to 457 µM)	12.5 to 150 µg/mL (≈ 38.1 to 457 µM)	12.5 to 150 µg/mL (≈ 38.1 to 457 µM)	12.5 to 150 µg/mL (≈ 38.1 to 457 µM)
C=CC1C(O)=C(C(=O)O)C(=O)NC1c1ccc2c(ccn2C)c1 (stereo not drawn) [Cpd 375, 4-hydroxy-6-(1-methyl-1H-indol-5-yl)-2-oxo-5-vinyl-1,2,5,6-tetrahydropyridine-3-carboxylic acid]	12.5 to 150 µg/mL (≈ 40 to 480 µM)	12.5 to 150 µg/mL (≈ 40 to 480 µM)	1 to 3.5 µg/mL (≈ 3.2 to 11.2 µM)	1 to 3.5 µg/mL (≈ 3.2 to 11.2 µM)	12.5 to 150 µg/mL (≈ 40 to 480 µM)	< 1 µg/mL	12.5 to 150 µg/mL (≈ 40 to 480 µM)	12.5 to 150 µg/mL (≈ 40 to 480 µM)	12.5 to 150 µg/mL (≈ 40 to 480 µM)
Cn1ccc2cc(-c3[nH]c(=O)c(C(=O)O)c(O)c3Cl)ccc21 [Cpd 376, 5-chloro-4-hydroxy-6-(1-methyl-1H-indol-5-yl)-2-oxo-1,2-dihydropyridine-3-carboxylic acid]	12.5 to 150 µg/mL (≈ 39.2 to 471 µM)	12.5 to 150 µg/mL (≈ 39.2 to 471 µM)	12.5 to 150 µg/mL (≈ 39.2 to 471 µM)	12.5 to 150 µg/mL (≈ 39.2 to 471 µM)	12.5 to 150 µg/mL (≈ 39.2 to 471 µM)	3.5 to 12.5 µg/mL (≈ 11 to 39.2 µM)	12.5 to 150 µg/mL (≈ 39.2 to 471 µM)	12.5 to 150 µg/mL (≈ 39.2 to 471 µM)	12.5 to 150 µg/mL (≈ 39.2 to 471 µM)
